From US11286243B2 (GLOBAL BLOOD THERAPEUTICS, INC., priority 2018, dated 2022)

Each molecule was assayed against T1, human ferroportin (Homo sapiens, UniProt Q9NP59) (assay: In-vitro ferroportin internalization assay (luciferase reporter)). Conditions: average pEC50; stably-transfected CHO cell line expressing human ferroportin tagged to a luciferase reporter; 6 h incubation with test compounds.
T1 construct: luciferase reporter (probably NanoLuc: read with the Nano-Glo Luciferase Assay System); expressed in transfected cells; host or cells: CHO cells, stably transfected, doxycycline-inducible expression
T1 sequence (Q9NP59 1-571): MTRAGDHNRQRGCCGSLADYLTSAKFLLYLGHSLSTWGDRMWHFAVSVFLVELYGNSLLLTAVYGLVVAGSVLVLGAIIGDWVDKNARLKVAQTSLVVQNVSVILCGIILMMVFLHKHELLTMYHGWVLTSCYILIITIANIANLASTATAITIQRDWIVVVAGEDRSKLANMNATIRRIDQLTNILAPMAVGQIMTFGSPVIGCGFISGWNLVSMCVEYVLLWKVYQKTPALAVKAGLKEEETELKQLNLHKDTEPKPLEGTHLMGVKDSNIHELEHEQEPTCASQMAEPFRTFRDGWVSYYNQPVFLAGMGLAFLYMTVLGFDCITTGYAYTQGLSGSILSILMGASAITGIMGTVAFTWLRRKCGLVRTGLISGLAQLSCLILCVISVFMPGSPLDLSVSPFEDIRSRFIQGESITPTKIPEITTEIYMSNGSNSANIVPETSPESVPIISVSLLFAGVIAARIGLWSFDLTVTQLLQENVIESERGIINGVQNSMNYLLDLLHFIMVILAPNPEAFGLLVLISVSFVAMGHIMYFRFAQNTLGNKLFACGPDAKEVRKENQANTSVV
Assay type: cell-based
Description: The protocol for this assay is generally as described in WO2018/128828, incorporated herein by reference in its entirety. Functional internalization of ferroportin protein was measured using a stably-transfected CHO cell line expressing the human ferroportin tagged to a luciferase reporter. Cells were plated for 24 h in the presence of ferric ammonium citrate (FAC). Ferroportin protein expression was induced with doxycycline for 24 h. The next day, the compounds were added. Test compounds were dissolved in DMSO. Cells were incubated with the test compounds for 6 h, and subsequently luciferase activity was measured using the Nano-Glo Luciferase Assay System and Glomax (Promega, Madison, Wis.).
The average pEC50 was determined for the test compounds.

Row | pEC50 | Compound
1 | 7.8 | Fc1cccnc1CNc1ncnc2sc(CCNCCc3nc4ccccc4[nH]3)nc12 [Compound 1, 2-(2-{[2-(1H-1,3-benzodiazol-2-yl)ethyl]amino}ethyl)-N-[(3-fluoropyridin-2-yl)methyl]-[1,3]thiazolo[5,4-d]pyrimidin-7-amine]
2 | 7.3 | Fc1cccnc1CNc1ncnc2oc(CCNCCc3nc4ccccc4[nH]3)nc12 [Compound 2, 2-(2-{[2-(1H-1,3-benzodiazol-2-yl)ethyl]amino}ethyl)-N-[(3-fluoropyridin-2-yl)methyl]-[1,3]oxazolo[5,4-d]pyrimidin-7-amine]
3 | 7.1 | Fc1ccc2[nH]c(CCNCCc3nc4c(NCc5ncccc5F)ncnc4s3)nc2c1 [Compound 3, 2-(2-{[2-(5-fluoro-1H-1,3-benzodiazol-2-yl)ethyl]amino}ethyl)-N-[(3-fluoropyridin-2-yl)methyl]-[1,3]thiazolo[5,4-d]pyrimidin-7-amine]
4 | 6.6 | c1ccc(CNc2ncnc3sc(CCNCCc4nc5ccccc5[nH]4)nc23)cc1 [Compound 4, 2-(2-{[2-(1H-1,3-benzodiazol-2-yl)ethyl]amino}ethyl)-N-benzyl-[1,3]thiazolo[5,4-d]pyrimidin-7-amine]
5 | 6.8 | c1ccc(CNc2ncnc3sc(CCNCCc4nc5ccccc5[nH]4)nc23)nc1 [Compound 5, 2-(2-{[2-(1H-1,3-benzodiazol-2-yl)ethyl]amino}ethyl)-N-[(pyridin-2-yl)methyl]-[1,3]thiazolo[5,4-d]pyrimidin-7-amine]
6 | 7.8 | Clc1cccnc1CNc1ncnc2sc(CCNCCc3nc4ccccc4[nH]3)nc12 [Compound 6, 2-(2-{[2-(1H-1,3-benzodiazol-2-yl)ethyl]amino}ethyl)-N-[(3-chloropyridin-2-yl)methyl]-[1,3]thiazolo[5,4-d]pyrimidin-7-amine]
7 | 6.7 | Fc1cccnc1CNc1ncnc2sc(CCNCc3nc4ccccc4[nH]3)nc12 [Compound 7, 2-(2-{[(1H-1,3-benzodiazol-2-yl)methyl]amino}ethyl)-N-[(3-fluoropyridin-2-yl)methyl]-[1,3]thiazolo[5,4-d]pyrimidin-7-amine]
8 | 6.4 | Fc1ccc(CNc2ncnc3sc(CCNCCc4nc5ccccc5[nH]4)nc23)nc1 [Compound 8, 2-(2-{[2-(1H-1,3-benzodiazol-2-yl)ethyl]amino}ethyl)-N-[(5-fluoropyridin-2-yl)methyl]-[1,3]thiazolo[5,4-d]pyrimidin-7-amine]
9 | 6.3 | c1cnc(CNc2ncnc3sc(CCNCCc4nc5ccccc5[nH]4)nc23)nc1 [Compound 9, 2-(2-{[2-(1H-1,3-benzodiazol-2-yl)ethyl]amino}ethyl)-N-[(pyrimidin-2-yl)methyl]-[1,3]thiazolo[5,4-d]pyrimidin-7-amine]
10 | 5.7 | CN(CCc1nc2ccccc2[nH]1)CCc1nc2c(NCc3ncccc3F)ncnc2s1 [Compound 10, 2-(2-{[2-(1H-1,3-benzodiazol-2-yl)ethyl](methyl)amino}ethyl)-N-[(3-fluoropyridin-2-yl)methyl]-[1,3]thiazolo[5,4-d]pyrimidin-7-amine]
11 | 6.7 | COc1cccnc1CNc1ncnc2sc(CCNCCc3nc4ccccc4[nH]3)nc12 [Compound 11, 2-(2-{[2-(1H-1,3-benzodiazol-2-yl)ethyl]amino}ethyl)-N-[(3-methoxypyridin-2-yl)methyl]-[1,3]thiazolo[5,4-d]pyrimidin-7-amine]
12 | 7.3 | Cc1cccnc1CNc1ncnc2sc(CCNCCc3nc4ccccc4[nH]3)nc12 [Compound 12, 2-(2-{[2-(1H-1,3-benzodiazol-2-yl)ethyl]amino}ethyl)-N-[(3-methylpyridin-2-yl)methyl]-[1,3]thiazolo[5,4-d]pyrimidin-7-amine]
13 | 8 | Fc1cccnc1CNc1nccc2oc(CCNCCc3nc4ccccc4[nH]3)nc12 [Compound 13, 2-(2-{[2-(1H-1,3-benzodiazol-2-yl)ethyl]amino}ethyl)-N-[(3-fluoropyridin-2-yl)methyl]-[1,3]oxazolo[4,5-c]pyridin-4-amine]
14 | 7.8 | Fc1cccnc1CNc1nccc2sc(CCNCCc3nc4ccccc4[nH]3)nc12 [Compound 14, 2-(2-{[2-(1H-1,3-benzodiazol-2-yl)ethyl]amino}ethyl)-N-[(3-fluoropyridin-2-yl)methyl]-[1,3]thiazolo[4,5-c]pyridin-4-amine]
15 | 6.8 | Fc1cccnc1CNc1ncnc2sc(CCNCCc3nc4c(F)cccc4[nH]3)nc12 [Compound 15, 2-(2-{[2-(4-fluoro-1H-1,3-benzodiazol-2-yl)ethyl]amino}ethyl)-N-[(3-fluoropyridin-2-yl)methyl]-[1,3]thiazolo[5,4-d]pyrimidin-7-amine]
16 | 5.6 | Fc1cccnc1CNc1ncnc2sc(CCNCCc3nc4ccccc4o3)nc12 [Compound 16, 2-(2-{[2-(1,3-benzoxazol-2-yl)ethyl]amino}ethyl)-N-[(3-fluoropyridin-2-yl)methyl]-[1,3]thiazolo[5,4-d]pyrimidin-7-amine]
17 | 7.7 | [N-]=[N+]=Nc1cccnc1CNc1ncnc2sc(CCNCCc3nc4ccccc4[nH]3)nc12 [Compound 17, N-[(3-azidopyridin-2-yl)methyl]-2-(2-{[2-(1H-1,3-benzodiazol-2-yl)ethyl]amino}ethyl)-[1,3]thiazolo[5,4-d]pyrimidin-7-amine]
18 | 5.7 | COc1nc(NCc2ncccc2F)c2nc(CCNCCc3nc4ccccc4[nH]3)sc2n1 [Compound 18, 2-(2-{[2-(1H-1,3-benzodiazol-2-yl)ethyl]amino}ethyl)-N-[(3-fluoropyridin-2-yl)methyl]-5-methoxy-[1,3]thiazolo[5,4-d]pyrimidin-7-amine]
19 | 6.2 | COc1cc2sc(CCNCCc3nc4ccccc4[nH]3)nc2c(NCc2ncccc2F)n1 [Compound 19, 2-(2-{[2-(1H-1,3-benzodiazol-2-yl)ethyl]amino}ethyl)-N-[(3-fluoropyridin-2-yl)methyl]-6-methoxy-[1,3]thiazolo[4,5-c]pyridin-4-amine]
20 | 7.5 | Fc1cccnc1CNc1ncnc2sc(C3CN(CCc4nc5ccccc5[nH]4)C3)nc12 [Compound 20, 2-{1-[2-(1H-1,3-benzodiazol-2-yl)ethyl]azetidin-3-yl}-N-[(3-fluoropyridin-2-yl)methyl]-[1,3]thiazolo[5,4-d]pyrimidin-7-amine]
21 | 6.2 | Nc1nc(NCc2ncccc2F)c2nc(CCNCCc3nc4ccccc4[nH]3)sc2n1 [Compound 21, 2-(2-{[2-(1H-1,3-benzodiazol-2-yl)ethyl]amino}ethyl)-N7-[(3-fluoropyridin-2-yl)methyl]-[1,3]thiazolo[5,4-d]pyrimidine-5,7-diamine]
22 | 6.5 | C#CCCC1(CCC(=O)Nc2ccc3[nH]c(CCNCCc4nc5c(NCc6ncccc6F)ncnc5s4)nc3c2)N=N1 [Compound 22, 3-[3-(but-3-yn-1-yl)-3H-diazirin-3-yl]-N-[2-(2-{[2-(7-{[(3-fluoropyridin-2-yl)methyl]amino}-[1,3]thiazolo[5,4-d]pyrimidin-2-yl)ethyl]amino}ethyl)-1H-1,3-benzodiazol-5-yl]propanamide]
23 | 8.8 | Oc1nc(NCc2ncccc2F)c2nc(CCNCCc3nc4ccccc4[nH]3)sc2n1 [Compound 23, 2-(2-{[2-(1H-1,3-benzodiazol-2-yl)ethyl]amino}ethyl)-7-{[(3-fluoropyridin-2-yl)methyl]amino}-[1,3]thiazolo[5,4-d]pyrimidin-5-ol]
24 | 5.8 | CC(CNCCc1nc2ccccc2[nH]1)c1nc2c(NCc3ncccc3F)ncnc2s1 (stereo not drawn) [Compound 24, 2-(1-{[2-(1H-1,3-benzodiazol-2-yl)ethyl]amino}propan-2-yl)-N-[(3-fluoropyridin-2-yl)methyl]-[1,3]thiazolo[5,4-d]pyrimidin-7-amine]
25 | 6.3 | Fc1cccnc1CNc1ncnc2sc(C3(F)CN(CCc4nc5ccccc5[nH]4)C3)nc12 [Compound 25, 2-{1-[2-(1H-1,3-benzodiazol-2-yl)ethyl]-3-fluoroazetidin-3-yl}-N-[(3-fluoropyridin-2-yl)methyl]-[1,3]thiazolo[5,4-d]pyrimidin-7-amine]
26 | 6.5 | C[C@H](Cc1nc2c(NCc3ncccc3F)ncnc2s1)NCCc1nc2ccccc2[nH]1 [Compound 26, 2-[(2R)-2-{[2-(1H-1,3-benzodiazol-2-yl)ethyl]amino}propyl]-N-[(3-fluoropyridin-2-yl)methyl]-[1,3]thiazolo[5,4-d]pyrimidin-7-amine]
27 | 6.2 | COC(=O)c1ccc2[nH]c(CCNCCc3nc4c(NCc5ncccc5F)ncnc4s3)nc2c1 [Compound 27, Methyl 2-(2-{[2-(7-{[(3-fluoropyridin-2-yl)methyl]amino}-[1,3]thiazolo[5,4-d]pyrimidin-2-yl)ethyl]amino}ethyl)-1H-1,3-benzodiazole-5-carboxylate]
